Entries after “also recorded” stand apart in the source; their conditions may differ. Where a name gives a salt, the structure may show the parent alone. Read-outs that look alike come from different tables or passages of the source.
What was measured:
[1] = biological target: T1, human NMDA receptors GluN1 and GluN2A subunits (GluN2A-containing NMDAR) (Homo sapiens, UniProt Q05586+Q12879); assay: cell-based
T1 construct: expressed in transfected cells; host or cells: HEK293 cells, transient liposome transfection of TRE-GluN1-GluN2A, tTA and pCAG-EGFP
Protocol: On the day before transfection, HEK293 cells were seeded in a 24-well plate with a 10 mm glass sheet, which was coated with polylysine in advance to increase the adhesion capacity of the cells. The plate was added with DMEM medium containing 10% FBS and incubated at 37° C., in 5% CO2 incubator. When the cell fusion reached 60%-70% after 18-24 hours, the plasmid cDNAs containing TRE-GluN1-GluN2A of human GluN1 and GluN2A, tTA, and pCAG-EGFP were transfected into HEK293 by liposome transfection (TRE-GluN1-GluN2A:tTA:pCAG-EGFP is 0.2 μg:0.2 μg:0.02 μg). Before transfection, anew DMEM medium was changed and added with 1 μg/mL Dox (doxycycline) to induce stable expression in the medium, and added with 100 μM D-APV and 10 mM MgCl2 to avoid cell excitatory toxicity caused by NMDAR overexpression. Cells with green fluorescence were selected for electrophysiological recording after transfection for about 24 h.
A glass plate seeded with HEK293 cells was placed in a recording bath and perfused with the extracellular fluid at a rate of 4 mL/min (NaCl 140 mM, KCl 2.8 mM, HEPES 10 mM, CaCl2 1 mM, glycine 0.1 mM, pH 7.2). The channels of the ALA-VC^3 eight-channel pressure perfusion system were filled with extracellular fluid for washing, extracellular fluid containing glutamic acid (100 μM), and extracellular fluid containing glutamic acid and compound to be tested, respectively, with a drop rate of about 1 drop/sec and 10 μL/drop. HEK293 cells with moderate green fluorescence intensity and good adhesion were selected under a fluorescence microscope for recording. The microglass tube of the perfusion system was placed about ten cells away from the cells to be recorded, and the drug was sprayed to the cell surface under the pressure of air (0.02 MPa). The glass electrode was prepared by drawing with a microelectrode drawing instrument with a resistance of 4-6 MΩ and filled with electrode liquid (CsCl 125 mM, HEPES 10 mM, EGTA 11 mM). The microelectrode manipulator was used to slowly push the glass electrode towards the cells. The electrode was attached to the cell membranes and applied with negative pressure, so that a high-resistance seal of more than 1 GΩ was formed between the electrode tip and the cell membrane, and then negative pressure was given to suck through the cell membrane to form a whole-cell recording mode. After the formation of whole-cell recording mode, the cell membrane potential was clamped at −70 mV. The extracellular fluid containing 100 μM glutamic acid, the extracellular fluid containing 100 μM glutamic acid and the compound to be tested, and the extracellular fluid were sprayed to the cell membrane surface sequentially through the perfusion system for 10 s, 20 s, and 10 s to record the NMDA receptor-mediated current and evaluate the inhibitory effect of the compound on GluN2A-containing NMDAR. The experimental process was controlled by pCLAMP 10.6, and the Digidata 1440A digital-to-analog converter was used to complete the generation of stimulus signal and the acquisition of feedback signal.
The ordinate in the figure is the normalized current ratio, which represents the ratio of the current mediated by NMDAR after administration of ketamine and the compound at a concentration of 10 μM to the current mediated by NMDAR before administration. […] Ketamine was used as a positive control.
The inhibitory percentages of the compound according to the present disclosure on NMDAR-mediated current=[…]/NMDAR mediated-current before administration*100%.

mice = assay: High dose toxicity test (behavior of mice after i.p. administration); format: in vivo; set-up: key to Rodent Epileptiform Behavior Scale score (maximum): 0: No abnormal behavior; 1: Unsteady walking/reduced exercise ability/immobility; 2: Generalized clonus/trembling/writhing; 3: The tail is stiff/swinging; 4: Forelimb contractures; 5: Generalized spasms/convulsions; 6: Startle or running convulsive seizures; 7: Generalized tonic-clonic seizures; 8: dead; conditions: for behavior during observation: observed about one hour; for Rodent Epileptiform Behavior Scale score (maximum): scale 0-8
Protocol: • 1. Experiments were performed in a quiet environment where animals needed to be weighed and acclimatized in the laboratory room for at least 30 min before the experiment. • 2. The compound to be tested was dissolved with 0.9% physiological saline at a concentration of 10 mg/ml. According to the body weight of mice, a corresponding volume of the compound was intraperitoneal injected (i.p.), so as to provide the target dose. • 3. The mice after administration were placed in transparent observation boxes, and the behavioral changes of the mice were recorded by video and observed for about one hour. (Note: During the observation period, if a mouse was lying still on the stomach, the mouse was turned over with your hand to check whether the righting reflex (RR) of the mouse disappeared. If it disappeared, the mouse was in the state of anesthesia, the time of anesthesia in the mouse was recorded). • 4. After one hour of observation, the mice were returned to the feeding cage and the observation boxes were wiped with 75% alcohol so that the information left over from the previous round (e.g. animal stool, urine and other odors) would not affect the next test results. Animals were replaced for the next round to continue the experiment.
Mice died after ketamine administration.
According to Rodent Epileptiform Behavior Scale score, Compound 9 induced epileptiform behavior in mice with a maximum score of 3. […] According to the Rodent Epileptiform Behavior Scale score. Compound 41 and 42 induced epileptiform behavior in mice with a maximum score of 1. […] The epileptiform behavior was scored according to the Rodent Epileptiform Behavior Scale score.

[2] = NMDAR-mediated current, HEK293 cells expressing human GluN1/GluN2A, 100 μM glutamic acid, clamped at −70 mV, compound 10 μM, read-out: current inhibitory percentages
[3] = high dose 150 mg/kg bw, formate, 150 mg/kg
[4] = medium dose 100 mg/kg body weight, formate, 100 mg/kg
[5] = medium dose 100 mg/kg body weight
[6] = medium dose 100 mg/kg body weight, hydrochloride, 100 mg/kg

T1 sequence (Q12879 23-1464, other chains not shown): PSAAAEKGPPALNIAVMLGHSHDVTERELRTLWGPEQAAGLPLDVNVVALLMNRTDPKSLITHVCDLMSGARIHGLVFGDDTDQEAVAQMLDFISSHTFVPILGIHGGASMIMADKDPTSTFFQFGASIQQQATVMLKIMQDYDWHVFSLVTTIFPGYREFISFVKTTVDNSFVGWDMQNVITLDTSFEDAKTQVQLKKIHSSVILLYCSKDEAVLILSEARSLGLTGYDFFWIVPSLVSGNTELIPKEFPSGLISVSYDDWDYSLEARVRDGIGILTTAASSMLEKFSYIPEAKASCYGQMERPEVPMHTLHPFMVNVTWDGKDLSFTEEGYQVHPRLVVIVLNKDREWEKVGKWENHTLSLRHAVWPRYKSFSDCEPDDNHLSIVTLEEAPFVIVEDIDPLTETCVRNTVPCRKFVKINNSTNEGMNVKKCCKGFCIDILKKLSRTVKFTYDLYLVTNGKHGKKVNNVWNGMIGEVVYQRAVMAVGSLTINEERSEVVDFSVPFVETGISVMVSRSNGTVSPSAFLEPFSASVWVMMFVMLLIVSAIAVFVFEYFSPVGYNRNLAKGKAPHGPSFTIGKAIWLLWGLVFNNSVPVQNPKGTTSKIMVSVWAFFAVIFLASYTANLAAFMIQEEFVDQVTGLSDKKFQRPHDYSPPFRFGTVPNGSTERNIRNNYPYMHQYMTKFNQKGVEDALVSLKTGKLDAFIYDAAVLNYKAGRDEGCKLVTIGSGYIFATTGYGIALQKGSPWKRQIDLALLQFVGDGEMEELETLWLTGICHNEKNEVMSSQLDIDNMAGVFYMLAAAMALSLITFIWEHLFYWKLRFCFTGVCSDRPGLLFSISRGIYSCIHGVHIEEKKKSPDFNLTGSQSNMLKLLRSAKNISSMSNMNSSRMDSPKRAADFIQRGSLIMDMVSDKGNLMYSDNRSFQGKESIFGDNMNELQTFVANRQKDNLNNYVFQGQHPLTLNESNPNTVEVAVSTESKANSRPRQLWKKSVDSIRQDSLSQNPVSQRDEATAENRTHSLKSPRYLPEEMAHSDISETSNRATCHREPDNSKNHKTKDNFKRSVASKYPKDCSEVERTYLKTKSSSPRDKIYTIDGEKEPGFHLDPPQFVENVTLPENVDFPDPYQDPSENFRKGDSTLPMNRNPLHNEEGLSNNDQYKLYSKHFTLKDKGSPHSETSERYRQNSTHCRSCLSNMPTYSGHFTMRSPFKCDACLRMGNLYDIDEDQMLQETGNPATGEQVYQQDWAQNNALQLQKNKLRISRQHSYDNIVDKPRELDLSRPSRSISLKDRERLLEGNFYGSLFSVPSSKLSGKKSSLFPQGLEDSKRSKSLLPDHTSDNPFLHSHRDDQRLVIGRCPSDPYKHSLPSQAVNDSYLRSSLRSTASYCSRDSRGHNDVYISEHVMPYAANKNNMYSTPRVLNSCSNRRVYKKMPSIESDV

SMILES | inhibition at 10 µM [1, 2] [%] | behavior during observation (mice; [3]) | behavior during observation (mice; [4]) | Rodent Epileptiform Behavior Scale score (maximum) (mice; [5]) | behavior during observation (mice; [6]) | other results
Clc1cccc(C23CCCCC2OCCN3)c1 (racemic) [Compound 9, 4a-(3-chlorophenyl)octahydro-2H-benzo[b][1,4]oxazine formate] | 88.8 | the state of anesthesia of mice returned to normal after half an hour; also recorded: the state of anesthesia lasted for half an hour | intermittent shaky waking, lying still on the stomach, and tail stiffness (seizure for about 10 seconds); also recorded: Moderate epilepsy | 3 |  | 
Clc1ccccc1C12CCCCC1OCCN2 (racemic) [Compound 11, 4a-(2-chlorophenyl)octahydro-2H-benzo[b][1,4]oxazine formate] | 85 | the activity reduction in mice lasted for half an hour before returning to normal | decreased activity; also recorded: Mild epilepsy | 1 |  | 
Clc1cccc([C@]23CCCC[C@H]2OCCN3)c1 [Compound 41, (4aR,8aR)-4a-(3-chlorophenyl)octahydro-2H-benzo[b][1,4]oxazine hydrochloride] | 92.9 |  |  |  | slightly shaky walking; also recorded: Slight shaking | 
Clc1cccc([C@@]23CCCC[C@@H]2OCCN3)c1 [Compound 42, (4aS,8aS)-4a-(3-chlorophenyl)octahydro-2H-benzo[b][1,4]oxazine hydrochloride] | 105 |  |  |  | slightly shaky walking; also recorded: Slight shaking | 
Clc1ccccc1[C@@]12CCCC[C@@H]1OCCN2 [Compound 44, (4aS,8aS)-4a-(2-chlorophenyl)octahydro-2H-benzo[b][1,4]oxazine hydrochloride] |  |  |  |  | no obvious abnormalities; also recorded: No abnormal | 
CNC1(c2ccccc2Cl)CCCCC1=O (stereo not shown) [Ketamine, reference compound] |  |  |  |  |  | inhibition at 10 µM ([1]; HEK293, read-out: current inhibitory percentages): 102%; behavior during observation (mice; high dose 150 mg/kg bw, 150 mg/kg): dead; behavior during observation (mice; high dose 150 mg/kg bw, listed as ketamine, 150 mg/kg): Mice died

— patent publication US20240254095A1, “NMDA Receptor Antagonist and Use Thereof” (priority 2021, published 2024)
